Counter-ions that a name gives are not always drawn.
Experiments:
[1] = target: T1, SYK (Homo sapiens, UniProt P43405); assay: Biochemical kinase inhibition assay on SYK, ADPGlo assay format; conditions: Table A, pre-activated SYK 0.6 nM, ATP 60 μM, BioDBn*327 125 μM, 60 minutes at room temperature
T1 construct: Recombinant proteins SYK FL was produced at NMS via baculo virus infection in insect cells; His; GST; made in house; host or cells: insect cells (baculovirus)

[2] = target: T1, SYK; assay: Biochemical kinase inhibition assay on SYK, KinaseGlo assay format; conditions: Table A; KinaseGlo format, pre-activated SYK 2.5 nM, ATP 2.5 μM, substrate BioDBn*327 125 uM, 60 minutes at rt; read-out: IC50 (μM) Kglo

| SMILES | IC50 [1] [µM] | IC50 [2] [µM] |
| --- | --- | --- |
| COc1cc(C#N)cc(Nc2nccc(-c3cc(C(=O)N[C@@H](C)CN(C)C)n(C)n3)n2)c1 [Example 78, 3-{2-[(3-cyano-5-methoxyphenyl)amino]pyrimidin-4-yl}-N-[(2S)-1-(dimethylamino)propan-2-yl]-1-methyl-1H-pyrazole-5-carboxamide] | 0.033 | 0.015 |
| COc1cc(Nc2nccc(-c3cc(C(=O)N[C@@H](C)CN(C)C)n(C)n3)n2)cc(OC)c1 [Example 67, 3-{2-[(3,5-dimethoxyphenyl)amino]pyrimidin-4-yl}-N-[(2S)-1-(dimethylamino)propan-2-yl]-1-methyl-1H-pyrazole-5-carboxamide] | 0.014 | < 0.004 |
| COc1cncc(Nc2nccc(-c3cc(C(=O)N[C@@H](C)CN4CCC4)n(C)n3)n2)c1 [Example 80, N-[(2S)-1-(azetidin-1-yl)propan-2-yl]-3-{2-[(5-methoxypyridin-3-yl)amino]pyrimidin-4-yl}-1-methyl-1H-pyrazole-5-carboxamide] | 0.081 | 0.044 |
| COc1cc(F)cc(Nc2nccc(-c3cc(C(=O)N[C@@H](C)CN(C)C)n(C)n3)n2)c1 [Example 65, N-[(2S)-1-(dimethylamino)propan-2-yl]-3-{2-[(3-fluoro-5-methoxyphenyl)amino]pyrimidin-4-yl}-1-methyl-1H-pyrazole-5-carboxamide] | 0.038 | 0.009 |
| Cc1cc(C)cc(Nc2nccc(-c3cc(C(=O)NCC(C)C)n(C)n3)n2)c1 [Example 46, 3-{2-[(3,5-dimethylphenyl)amino]pyrimidin-4-yl}-1-methyl-N-(2-methylpropyl)-1H-pyrazole-5-carboxamide] |  | 0.049 |

Results, then the molecule that gave them:

| IC50 [1] [µM] | IC50 [2] [µM] | SMILES |
| --- | --- | --- |
| 0.023 | 0.006 | COc1cc(F)cc(Nc2nccc(-c3cc(C(=O)N[C@@H](C)CN4CCC4)n(C)n3)n2)c1 [Example 48, N-[(2S)-1-(azetidin-1-yl)propan-2-yl]-3-{2-[(3-fluoro-5-methoxyphenyl)amino]pyrimidin-4-yl}-1-methyl-1H-pyrazole-5-carboxamide] |
| 0.026 | 0.007 | COc1cc(C#N)cc(Nc2nccc(-c3cc(C(=O)N[C@@H](C)CN4CCC4)n(C)n3)n2)c1 [Example 79, N-[(2S)-1-(azetidin-1-yl)propan-2-yl]-3-{2-[(3-cyano-5-methoxyphenyl)amino]pyrimidin-4-yl}-1-methyl-1H-pyrazole-5-carboxamide] |
| 0.473 | 0.273 | C[C@@H](CN(C)C)NC(=O)c1cc(-c2ccnc(Nc3cnn(C)c3)n2)nn1C [Example 75, N-[(2S)-1-(dimethylamino)propan-2-yl]-1-methyl-3-{2-[(1-methyl-1H-pyrazol-4-yl)amino]pyrimidin-4-yl}-1H-pyrazole-5-carboxamide] |
| 0.087 | 0.034 | COc1cc(Nc2nccc(-c3cc(C(=O)NCCN(C)C)n(C)n3)n2)cc(OC)c1 [Example 72, 3-{2-[(3,5-dimethoxyphenyl)amino]pyrimidin-4-yl}-N-[2-(dimethylamino)ethyl]-1-methyl-1H-pyrazole-5-carboxamide] |
|  | 0.169 | Cc1cc(C)cc(Nc2nccc(-c3cc(C(=O)N4CCNCC4)n(C)n3)n2)c1 [Example 36, (3-{2-[(3,5-dimethylphenyl)amino]pyrimidin-4-yl}-1-methyl-1H-pyrazol-5-yl)(piperazin-1-yl)methanone hydrochloride] |
|  | < 0.004 | C[C@@H](CN1CCC1)NC(=O)c1cc(-c2ccnc(Nc3ccc4c(c3)c(Cl)cn4C)n2)nn1C [Example 59, N-[(2S)-1-(azetidin-1-yl)propan-2-yl]-3-{2-[(3-chloro-1-methyl-1H-indol-5-yl)amino]pyrimidin-4-yl}-1-methyl-1H-pyrazole-5-carboxamide] |
|  | 0.06 | CCn1nc(-c2ccnc(Nc3cc(C)cc(C)c3)n2)cc1C(=O)N[C@@H]1CCCNC1 [Example 122, 3-{2-[(3,5-dimethylphenyl)amino]pyrimidin-4-yl}-1-ethyl-N-[(3R)-piperidin-3-yl]-1H-pyrazole-5-carboxamide hydrochloride] |
| 0.01 | 0.008 | COc1cc(Nc2nccc(-c3cc(C(=O)N[C@@H](C)CN4CCCC4)n(C)n3)n2)cc(OC)c1 [Example 69, 3-{2-[(3,5-dimethoxyphenyl)amino]pyrimidin-4-yl}-1-methyl-N-[(2S)-1-(pyrrolidin-1-yl)propan-2-yl]-1H-pyrazole-5-carboxamide] |
